{"source": "patent US20120101261A1", "about": "“USE OF MULTI-KINASE INHIBITORS IN THE TREATMENT OF VASCULAR HYPERPERMEABILITY” (Fondazione IRCCS Istituto Nazionale Dei Tumori, priority 2009, published 2012)", "key": {"[1]": {"tested_on": "severe bilateral leg lymphedema", "assay": "Observation of leg lymphedema in a Hodgkin lymphoma patient in a phase II clinical trial", "format": "in vivo, human", "details": "one Hodgkin lymphoma patient, 800 mg/die, lymphedema from post-radiotherapy compressive lymphatic obstruction", "from_the_text": "In this patient, lymphedema was due a compressive lymphatic obstruction related to post-radiotherapy sequelae."}, "[2]": {"tested_on": "acquired arm lymphedema", "assay": "Pilot clinical study in breast cancer patients with acquired arm lymphedema", "format": "in vivo, human", "details": "oral 200 mg daily, up to 8 weeks, ten patients", "from_the_text": "To further evaluate in a clinical setting the anti-lymphedema activity of multi-kinase inhibitor sorafenib, the Applicants performed a pilot study on a compassionate need basis to evaluate the toxicity and the anti-lymphedema effects of multi-kinase inhibitor sorafenib in consenting breast cancer patients with acquired arm lymphedema occurring following surgical dissection of, and/or radiotherapy on axillary lymphnodes. No other treatment options of proven efficacy was available for these patients.\nPatients were administered with oral sorafenib at a dose of 200 mg daily.\nTherapy was given for a maximum of 8 weeks or until lymphedema progression or appearance of clinical significant toxicity probably related to multi-kinase inhibitor sorafenib.\nWithin a two-month period of time ten breast cancer patients with acquired lymphedema of the arm were treated with multi-kinase inhibitor sorafenib.\nAt the end of treatment, the efficacy of multi-kinase inhibitor sorafenib was evaluated as percentage reduction of total arm circumference as compared with pre-treatment values. The median reduction of total arm circumference was 60% (range, 30 to 100). Lymphedema reduction was associated with a 5-10% reduction of body weight."}, "[3]": {"tested_on": "vascular permeability in mouse tail", "assay": "Miles vascular permeability assay (Evans blue) in mice with surgically induced tail lymphedema", "format": "in vivo", "procedure": "A Miles vascular permeability assay using intrasplenic injection of the blue dye Evans blue was perfomed in untreated and sorafenib-treated mice bearing a surgical-induced tail lymphedema.\nSix- to eight-wk-old female C57BL/6 mice with body weight of 20 to 25 g, were used in this experiment. Tail lymphedema was generated by a circumferential incision through the dermis close to the tail base, as described above. […] On day 16, mice received the last dose of sorafenib and 2 hrs later were injected through the spleen with 0.1 ml of 1% Evan's blue in PBS. After 2 h, the mice were exsanguinated under anesthesia, and were perfused with heparin in PBS until lungs and livers were blanched. The distal portion of the tail was then removed and placed in formamide at 37° C. overnight to extract Evan's blue dye. […]"}, "[4]": {"tested_on": "tail lymphedema in C57BL/6 mice", "assay": "Mouse tail model of lymphedema", "format": "in vivo", "details": "60 mg/kg/die days 5 to 9 and 12 to 16", "procedure": "Six- to eight-wk-old female C57BL/6 mice with body weight of 20 to 25 g, were purchased from Charles River (Milano, Italy, EU). Mice were housed under standard laboratory conditions according to the Applicant's institutional guidelines. Animal experiments were performed according to the Italian laws (Law Decree 116/92 and following additions), which enforce the EU […] Directive, and were approved by the institutional Ethical Committee for Animal Experimentation.\nTo create lymphedema, a circumferential incision was made through the dermis close to the tail base to sever the dermal lymphatic vessels. The edges of this incision were then pushed apart, thereby severing the deeper draining lymphatics, preventing superficial bleeding, and creating a 2-3 mm gap to delay wound closure.\nSorafenib dosing used in mice experiments is roughly equivalent to a 300 mg daily dosing in humans.\nMice were than randomly assigned to receive two cycles of sorafenib (60 mg/kg/die) from days 5 to 9 and 12 to 16 or control vehicle."}}, "data": [{"smiles": "CNC(=O)c1cc(Oc2ccc(NC(=O)Nc3ccc(Cl)c(C(F)(F)F)c3)cc2)ccn1", "note": "[sorafenib, Sorafenib]", "values": [{"measurement": "regression of severe bilateral leg lymphedema", "setting": "[1]", "value": "complete regression"}, {"measurement": "median reduction of total arm circumference vs pre-treatment", "setting": "[2]; end of treatment", "value": 60, "unit": "%"}, {"measurement": "reduction of body weight associated with lymphedema reduction", "setting": "[2]", "value": "5-10%"}, {"measurement": "tolerability", "setting": "[2]; no dose reduction or discontinuation due to toxicity", "value": "well tolerated"}, {"measurement": "mean (±SEM) OD620 of Evans blue extracted from the tail", "setting": "[3]; 60 mg/kg, 384 h", "value": "0.09±0.009"}, {"measurement": "reduction of vascular permeability vs untreated mice (extravasated Evans blue)", "setting": "[3]; day 16, 60 mg/kg/die days 5 to 9 and 12 to 16", "value": 2, "unit": "fold"}, {"measurement": "mean (±SEM) tail diameter at lymphedema peak", "setting": "[4]; day 7 after incision, control peak 63±3 mm on day 15", "value": "58±4", "unit": "mm"}, {"measurement": "resolution of tail lymphedema", "setting": "[4]; day 20", "value": "complete resolution of lymphedema"}, {"measurement": "mean (±SEM) tail diameter on day 20", "setting": "[4]; day 20 after incision, control 58±3, P≦0.0003, baseline 36±1", "value": "36±1", "unit": "mm"}]}]}
